Results from patent US11034650B2, “Compounds useful for treating a Mannheimia haemolytica or Histophilus somni infection” (Intervet Inc., priority 2016, dated 2021).
Converted amounts (≈) assume the structure as drawn.

Columns and labels:
Assay type in all cases: cell-based
[1] = tested on: Pasteurella multocida PM 6267 (P 2225 (L386), reference strain, mouse infection strain); test: MIC, broth-microdilution (CLSI VET01-A4), strain PM 6267; conditions: Pasteurella multocida strain PM 6267, broth-microdilution; unit assumed
Method in brief: (§1)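 Doubling dilution series in trays; visual read, MIC = lowest conc. with no visible turbidity; interpretation per CLSI VET01-S3.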

[2] = tested on: Mannheimia haemolytica MH 13093 (XB0472-6014.1, BRD field isolate); test: MIC, broth-microdilution (CLSI VET01-A4), strain MH 13093; conditions: Mannheimia haemolytica strain MH 13093, broth-microdilution; unit assumed
Method in brief: as §1

[3] = tested on: Mannheimia haemolytica MH 10720 (154, BRD field isolate); test: MIC, broth-microdilution (CLSI VET01-A4), strain MH 10720; conditions: Mannheimia haemolytica strain MH 10720, broth-microdilution; unit assumed
Method in brief: as §1

[4] = tested on: Pasteurella multocida PM 12080 (IV102277-0093, BRD field isolate); test: MIC, broth-microdilution (CLSI VET01-A4), strain PM 12080; conditions: Pasteurella multocida strain PM 12080, broth-microdilution; unit assumed
Method in brief: as §1

[5] = tested on: Mannheimia haemolytica MH 12587 (1071, BRD field isolate, macrolide-resistance: erm+, E+); test: MIC, broth-microdilution (CLSI VET01-A4), strain MH 12587; conditions: Mannheimia haemolytica strain MH 12587, broth-microdilution; unit assumed
Method in brief: as §1

[6] = tested on: Pasteurella multocida PM 6391 (ATCC 43137, reference strain); test: MIC, broth-microdilution (CLSI VET01-A4), strain PM 6391; conditions: Pasteurella multocida strain PM 6391, broth-microdilution; unit assumed
Method in brief: as §1

[7] = tested on: Mannheimia haemolytica MH 6357 (M7/2, reference strain, cattle infection strain); test: MIC, broth-microdilution (CLSI VET01-A4), strain MH 6357; conditions: Mannheimia haemolytica strain MH 6357, broth-microdilution; unit assumed
Method in brief: as §1

[8] = tested on: Mannheimia haemolytica MH 6374 (ATCC 33396, reference strain); test: MIC, broth-microdilution (CLSI VET01-A4), strain MH 6374; conditions: Mannheimia haemolytica strain MH 6374, broth-microdilution; unit assumed
Method in brief: as §1

[9] = tested on: Mannheimia haemolytica MH 13065 (XB0446-6003.9, BRD field isolate); test: MIC, broth-microdilution (CLSI VET01-A4), strain MH 13065; conditions: Mannheimia haemolytica strain MH 13065, broth-microdilution; unit assumed
Method in brief: as §1

[10] = tested on: Pasteurella multocida PM 10775 (080130003051, BRD field isolate); test: MIC, broth-microdilution (CLSI VET01-A4), strain PM 10775; conditions: Pasteurella multocida strain PM 10775, broth-microdilution; unit assumed
Method in brief: as §1

Row | SMILES | MIC PM 6267 [1] | MIC PM 12080 [4] | MIC PM 6391 [6] | MIC PM 10775 [10] | MIC MH 13093 [2] | MIC MH 10720 [3] | MIC MH 12587 [5] | MIC MH 6357 [7] | MIC MH 6374 [8] | MIC MH 13065 [9]
1 | CSC(C)(C)[C@H](NC(=O)c1ccc(C#Cc2ccc(CNCc3ccccc3)nc2)cc1)C(=O)NO [Compound 339] | 0.8 mg/L (≈ 1.59 µM) | 0.2 mg/L (≈ 0.398 µM) | 0.8 mg/L (≈ 1.59 µM) | ≤ 0.1 mg/L | 1.6 mg/L (≈ 3.18 µM) | ≤ 0.1 mg/L | 1.6 mg/L (≈ 3.18 µM) | 0.8 mg/L (≈ 1.59 µM) | 1.6 mg/L (≈ 3.18 µM) | 0.8 mg/L (≈ 1.59 µM)
2 | COc1ccc(CNCc2ccc(C#Cc3ccc(C(=O)N[C@H](C(=O)NO)C(C)(C)SC)cc3)cn2)cc1 [Compound 340] | 1.6 mg/L (≈ 3 µM) | 0.8 mg/L (≈ 1.5 µM) | 1.6 mg/L (≈ 3 µM) | 0.2 mg/L (≈ 0.375 µM) | 1.6 mg/L (≈ 3 µM) | 0.4 mg/L (≈ 0.751 µM) | 3.1 mg/L (≈ 5.82 µM) | 0.8 mg/L (≈ 1.5 µM) | 1.6 mg/L (≈ 3 µM) | 1.6 mg/L (≈ 3 µM)
3 | CSC(C)(C)[C@H](NC(=O)c1ccc(C#Cc2ccc(CNCc3ccncc3)nc2)cc1)C(=O)NO [Compound 341] | 1.6 mg/L (≈ 3.18 µM) | 0.4 mg/L (≈ 0.794 µM) | 0.8 mg/L (≈ 1.59 µM) | 0.2 mg/L (≈ 0.397 µM) | 1.6 mg/L (≈ 3.18 µM) | 0.2 mg/L (≈ 0.397 µM) | 3.1 mg/L (≈ 6.16 µM) | 0.8 mg/L (≈ 1.59 µM) | 1.6 mg/L (≈ 3.18 µM) | 1.6 mg/L (≈ 3.18 µM)
4 | CSC(C)(C)[C@H](NC(=O)c1ccc(C#Cc2ccc(CNCC#N)nc2)cc1)C(=O)NO [Compound 342] | 1.6 mg/L (≈ 3.54 µM) | 0.8 mg/L (≈ 1.77 µM) | 1.6 mg/L (≈ 3.54 µM) | 0.2 mg/L (≈ 0.443 µM) | 3.1 mg/L (≈ 6.87 µM) | 0.4 mg/L (≈ 0.886 µM) | 6.3 mg/L (≈ 14 µM) | 1.6 mg/L (≈ 3.54 µM) | 3.1 mg/L (≈ 6.87 µM) | 3.1 mg/L (≈ 6.87 µM)

Second part, led by results:

Row | MIC PM 6267 [1] | MIC PM 12080 [4] | MIC PM 6391 [6] | MIC PM 10775 [10] | SMILES | MIC MH 13093 [2] | MIC MH 10720 [3] | MIC MH 12587 [5] | MIC MH 6357 [7] | MIC MH 6374 [8] | MIC MH 13065 [9]
5 | 3.1 mg/L (≈ 6.16 µM) | 1.6 mg/L (≈ 3.18 µM) | 6.3 mg/L (≈ 12.5 µM) | 0.4 mg/L (≈ 0.794 µM) | CSC(C)(C)[C@H](NC(=O)c1ccc(C#Cc2ccc(CNCc3ccccn3)nc2)cc1)C(=O)NO [Compound 343] | 6.3 mg/L (≈ 12.5 µM) | 0.4 mg/L (≈ 0.794 µM) | 6.3 mg/L (≈ 12.5 µM) | 3.1 mg/L (≈ 6.16 µM) | 3.1 mg/L (≈ 6.16 µM) | 3.1 mg/L (≈ 6.16 µM)
6 | 0.8 mg/L (≈ 1.62 µM) | 0.4 mg/L (≈ 0.812 µM) | 0.8 mg/L (≈ 1.62 µM) | ≤ 0.1 mg/L | CSC(C)(C)[C@H](NC(=O)c1ccc(C#Cc2ccc(CNCc3ccco3)nc2)cc1)C(=O)NO [Compound 344] | 1.6 mg/L (≈ 3.25 µM) | ≤ 0.1 mg/L | 1.6 mg/L (≈ 3.25 µM) | 0.4 mg/L (≈ 0.812 µM) | 0.8 mg/L (≈ 1.62 µM) | 0.8 mg/L (≈ 1.62 µM)
7 | 0.8 mg/L (≈ 1.62 µM) | 0.4 mg/L (≈ 0.809 µM) | 0.8 mg/L (≈ 1.62 µM) | ≤ 0.1 mg/L | CSC(C)(C)[C@H](NC(=O)c1ccc(C#Cc2ccc(CNCC(F)(F)F)nc2)cc1)C(=O)NO [Compound 345] | 1.6 mg/L (≈ 3.24 µM) | ≤ 0.1 mg/L | 1.6 mg/L (≈ 3.24 µM) | 0.8 mg/L (≈ 1.62 µM) | 1.6 mg/L (≈ 3.24 µM) | 0.8 mg/L (≈ 1.62 µM)
8 | 6.3 mg/L (≈ 12.5 µM) | 1.6 mg/L (≈ 3.17 µM) | 3.1 mg/L (≈ 6.14 µM) | 0.4 mg/L (≈ 0.793 µM) | CSC(C)(C)[C@H](NC(=O)c1ccc(C#Cc2ccc(CNCc3ncccn3)nc2)cc1)C(=O)NO [Compound 346] | 12.5 mg/L (≈ 24.8 µM) | 0.8 mg/L (≈ 1.59 µM) | 12.5 mg/L (≈ 24.8 µM) | 6.3 mg/L (≈ 12.5 µM) | 6.3 mg/L (≈ 12.5 µM) | 6.3 mg/L (≈ 12.5 µM)
9 | 1.6 mg/L (≈ 3.15 µM) | 0.8 mg/L (≈ 1.58 µM) | 0.8 mg/L (≈ 1.58 µM) | ≤ 0.1 mg/L | CSC(C)(C)[C@H](NC(=O)c1ccc(C#Cc2ccc(CNCc3ncc(C)o3)nc2)cc1)C(=O)NO [Compound 347] | 1.6 mg/L (≈ 3.15 µM) | 0.2 mg/L (≈ 0.394 µM) | 3.1 mg/L (≈ 6.11 µM) | 0.8 mg/L (≈ 1.58 µM) | 1.6 mg/L (≈ 3.15 µM) | 1.6 mg/L (≈ 3.15 µM)
